Where two headings read alike, the source gives them in different places.

We go through eleven compounds from patent publication US20230295201A1 (Gilead Sciences, Inc., priority 2020, published 2023).

What all share (assay type): cell-based
Test [1] relates to RSV A2. Kind of test: RSV NHBE EC50 (RSV A2 antiviral assay in normal human bronchial epithelial cells). The note with it: NHBE cells, RSV A2, 4 days, read-out: RSV NHBE EC50.
For test [2], the system named is RSV strain A2. Kind of test: RSV HEp-2 EC50 (infectious cytopathic cell protection assay). Particulars: HEp-2 cells, RSV A2, 4 days, read-out: RSV HEp-2 EC50. The gist of the method:
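Percent inhibition of RSV-induced cytopathic effect came from remaining cell viability (CellTiter-Glo luminescence) after 4 days at 37° C. Compounds in 3-fold serial dilutions were exposed to an infectious mix of titered A2 virus and HEp-2 cells at 50,000/ml, with 0% and 100% inhibition control standards.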
A general note: Protection from cytopathic effect is a common read-out in antiviral testing.

The subject of test [3] is Dengue serotype 2 New Guinea C (NGC) strain. The experiment in a line: DENV-2 Huh-7 EC50 (qPCR in Huh7 cells). As for the experimental part: Huh7 (Human hepatocarcinoma 7) cells were maintained in 10% FCS-containing DMEM complete media. On the day of the assay, cells were trypsinized (0.1% Trypsin-EDTA), washed and infected for 2 hours in serum-free DMEM with Dengue serotype 2 New Guinea C (NGC) strain at MOI=0.1 with gentle agitation at 37° C. After 2 hours, cells were washed with serum-free media and suspended in 10% FCS-containing DMEM (Gibco, supplemented with sodium pyruvate, NEAA, Penicillin-Streptomycin). 10^5 cells were plated in triplicate in 96-well plates with compounds dispensed at graded doses (Hewlett-Packard D300 Digital Dispenser). All wells were normalized to 0.25% DMSO. At 48 hours, cells were washed with 1×PBS and all supernatants removed. Total RNA was extracted using RNEasy 96 plates (Qiagen) and used to generate first-strand cDNA using XLT cDNA 5×Supermix (QuantaBio). cDNA was used as a template in a Taqman qPCR duplex reaction specific to DENV2 viral and GAPDH gene expression. EC50 values were determined using Prism Graphpad software, with normalization to a positive control and no compound negative control wells.

Test [4] relates to HRV16. The experiment in a line: HRV16 HELA EC50 (cytopathic effect in H1-HeLa cells). The gist of the method: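 Read-out is luminescent cell viability (CellTiter-Glo) after 96 h of infection at 33 °C, scaled between uninfected and infected-untreated wells. Before infection with titrated virus, compounds went onto H1-HeLa cells as triplicate 3-fold dilution series.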
Test [5] has as its system DENV2 replicon. The experiment in a line: DENV-2 Huh-7 Rep EC50 (replicon luminescence). Particulars: read-out: DENV-2 Huh-7 Rep EC50. The gist of the method: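 EC50 derived from luminescence dose-response, normalised to DMSO-only 0% inhibition wells, after 1.5 h with EnduRen substrate. Compounds were first exposed for 48 h at 37° C to DENV2 replicon Huh-7 cells (5,000/well).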
On the technique in general: Replicon systems follow genome replication, usually without infectious particles.

In test [6] the target is HCV replicon 1B. The experiment in a line: HCV Rep 1B EC50 (replicon luciferase). How it is done:
(§1) Compounds were serially diluted in ten steps of 1:3 dilutions in 384-well plates. All serial dilutions were performed in four replicates per compound within the same 384-well plate. […] To each well of a black polystyrene 384-well plate (Greiner Bio-one, Monroe, NC), 90 μL of cell culture medium (without Geneticin) containing 2000 suspended HCV replicon cells was added with a Biotek μFlow workstation. For compound transfer into cell culture plates, 0.4 μL of compound solution from the compound serial dilution plate was transferred to the cell culture plate on a Biomek FX workstation. The DMSO concentration in the final assay wells was 0.44%. The plates were incubated for 3 days at 37° C. with 5% CO2 and 85% humidity. The HCV replicon assay was a multiplex assay, able to assess both cytotoxicity and antireplicon activity from the same well. The CC50 assay was performed first. The media in the 384-well cell culture plate was aspirated, and the wells were washed four times with 100 μL of PBS each, using a Biotek ELX405 plate washer. A volume of 50 μL of a solution containing 400 nM calcein AM (Anaspec, Fremont, CA) in 1×PBS was added to each well of the plate with a Biotek μFlow workstation. The plate was incubated for 30 min at room temperature before the fluorescence signal (excitation 490 nm, emission 520 nm) was measured with a Perkin-Elmer Envision plate reader. The EC50 assay was performed in the same wells as the CC50 assay. The calcein-PBS solution in the 384-well cell culture plate was aspirated with a Biotek ELX405 plate washer. A volume of 20 μL of Dual-Glo luciferase buffer (Promega, Madison, WI) was added to each well of the plate with a Biotek μFlow Workstation. The plate was incubated for 10 min at room temperature. A volume of 20 μL of a solution containing a 1:100 mixture of Dual-Glo Stop & Glo substrate (Promega, Madison, WI) and Dual-Glo Stop & Glo buffer (Promega, Madison, WI) was added to each well of the plate with a Biotek μFlow Workstation. The plate was then incubated at room temperature for 10 min before the luminescence signal was measured with a Perkin-Elmer Envision Plate Reader.

The target in test [7] is HCV replicon 2A. Kind of test: HCV Rep 2A EC50 (replicon luciferase). As for the experimental part:
as §1

Test [8] relates to Dengue 2, New Guinea strain (NGC). Kind of test: DENV-2 moDC EC50 (qPCR in human monocyte-derived dendritic cells). The note with it: Dengue virus, DENV2, Dendritic cell; moDCs, 48 hours. How it is done: Human monocyte-derived dendritic cells (moDCs) were derived from CD14+ monocytes (AllCells) cultured in Human Mo-DC Differentiation medium containing GM-CSF and IL-4 (Miltenyi Biotec). On day 7, moDCs were harvested by mechanical disruption, washed and suspended in serum-free RPMI. moDCs were infected with Vero-derived Dengue 2, New Guinea strain (NGC) at a MOI=0.1 for two hours in serum-free RPMI with gentle agitation at 37° C. Cells were washed and resuspended in 10% serum-containing RPMI (Gibco, supplemented with sodium pyruvate, NEAA, Penicillin-Streptomycin). 10^5 cells were plated in triplicate in 96-well plates with compounds dispensed at graded doses (Hewlett-Packard D300 Digital Dispenser). All wells were normalized to 0.25% DMSO. At 48 hours, cells were washed with 1×PBS and all supernatants removed. Total RNA was extracted using RNEasy 96 plates (Qiagen) and used to generate first-strand cDNA using XLT cDNA 5× Supermix (QuantaBio). cDNA was used as a template in a Taqman qPCR duplex reaction specific to DENV2 viral and GAPDH gene expression. EC50 values were determined using Prism Graphpad software, with normalization to a positive control and no compound negative control wells.
(In general: Quantitative PCR measures a nucleic acid by following its amplification.)

Setting [9] is: H1-HeLa cells, 96 h, 33° C.; read-out: HRV16 HELA EC50.
Setting [10] is: replicon cells, 3 days, read-out: HCV Rep 1B EC50.
Where [11] appears, read: replicon cells, 3 days, read-out: HCV Rep 2A EC50.
[12] abbreviates: Dengue virus, DENV2, Huh-7, 48 h, Huh-7 replicon cells, 48 hours.
[13] abbreviates: human respiratory syncytial virus, 96 h.
The mark [14] stands for this setting: Dengue virus, DENV2, Huh-7, 48 h.
Setting [15] is: human respiratory syncytial virus, NHBE, 96 h.
Setting [16] is: human respiratory syncytial virus, HEp-2, 96 h.
Where [17] appears, read: 96 h, H1-HeLa cells, 33° C., read-out: HRV16 HELA EC50.

On to `CC(NP(=O)(OCC1(C#N)OC(c2ccc3c(N)ncnn23)C(O)C1O)Oc1ccccc1)C(=O)OCC1CCC(C(F)(F)F)CC1` (single isomer, unassigned) [Example 28], for which the EC50 in test [1] turned out to be 0.053 µM; in test [2], 0.238 µM; in test [3] (48 hours), 2.16 µM; in test [4] (setting [9]) it was 0.59 µM; in test [5] (Huh-7 replicon cells, 48 hours), 29.6 µM.

Regarding `COCCCOC(=O)[C@H](C)NP(=O)(OC[C@@]1(C#N)O[C@@H](c2ccc3c(N)ncnn23)[C@H](O)[C@@H]1O)Oc1ccccc1` (single isomer, unassigned) [Example 60], the EC50 in test [1] amounted to 0.361 µM; in test [2], 0.583 µM; in test [3] (48 hours), 6.82 µM; in test [6] (setting [10]), 6.08 µM; in test [7] (setting [11]), 10.8 µM; in test [5] (Huh-7 replicon cells, 48 hours) it was 41.3 µM.

For the compound `C[C@H](NP(=O)(OC[C@@]1(C#N)O[C@@H](c2ccc3c(N)ncnn23)[C@H](O)[C@@H]1O)Oc1ccccc1)C(=O)O[C@H]1CCOC1` (single isomer, unassigned) [Example 66], the EC50 in test [6] (Hepatitis C virus, 72 h, read-out: HCV Rep 1B EC50, replicon cells, 3 days) was 14.9 µM; in test [7] (Hepatitis C virus, 72 h, read-out: HCV Rep 2A EC50, replicon cells, 3 days) it was 21.8 µM; in test [5] (setting [12]) it was above 100 µM.

Consider `CC(NP(=O)(OCC1(C#N)OC(c2ccc3c(N)ncnn23)C(O)C1O)Oc1ccccc1)C(=O)OC1CCOC1` (single isomer, unassigned) [Example 69], for which the concentration giving a half-maximal response (EC50) in test [6] (setting [10]) is 25.3 µM; in test [7] (setting [11]) it was 50.3 µM; in test [4] (setting [9]) it was 7.33 µM; in test [5] (Huh-7 replicon cells, 48 hours), above 100 µM.

Regarding `CC(NP(=O)(OCC1(C#N)OC(c2ccc3c(N)ncnn23)C(O)C1O)Oc1ccccc1)C(=O)OC1CCOC1` (single isomer, unassigned) [Example 70], the concentration for a half-maximal effect (EC50) in test [6] (setting [10]) was 9.43 µM; in test [7] (setting [11]), 32.7 µM; in test [4] (setting [9]), 5.23 µM; in test [5] (Huh-7 replicon cells, 48 hours) it was above 100 µM.

For the compound `CCC(CC)COC(=O)[C@H](C)NP(=O)(N[C@@H](C)C(=O)OC1CCCCC1)OC[C@@]1(C#N)O[C@@H](c2ccc3c(N)ncnn23)[C@H](O)[C@@H]1O` (single isomer, unassigned) [Example 227], the concentration for a half-maximal effect (EC50) worked out at 0.126 µM in test [1]; 0.614 µM in test [2]; 10.2 µM in test [6] (setting [10]); 4.76 µM in test [7] (setting [11]); 4.94 µM in test [4] (setting [9]); 39.4 µM in test [5] (Huh-7 replicon cells, 48 hours).

On to `CCC(CC)COC(=O)[C@H](C)NP(=O)(N[C@@H](C)C(=O)OCC(CC)CC)OC[C@@]1(C#N)O[C@@H](c2ccc3c(N)ncnn23)[C@H](O)[C@@H]1O` [Example 7], for which the EC50 in test [1] (setting [13]) was 0.265 µM; in test [8], above 25 µM; in test [2] (setting [13]) it was 1.86 µM; in test [4] (setting [9]) it was 5.94 µM; in test [5] (setting [14]), 32.9 µM.

Regarding `C[C@H](NP(=O)(OC[C@@]1(C#N)O[C@@H](c2ccc3c(N)ncnn23)[C@H](O)[C@@H]1O)Oc1ccccc1)C(=O)OCc1ccccc1` (stereo partly drawn) [Example 37, benzyl ((((2R,3S,4R,5S)-5-(4-aminopyrrolo[2,1-f][1,2,4]triazin-7-yl)-2-cyano-3,4-dihydroxytetrahydrofuran-2-yl)methoxy) (phenoxy)phosphoryl)-L-alaninate], the concentration giving a half-maximal response (EC50) stood at 0.129 µM in test [1] (setting [15]); 0.136 µM in test [2] (setting [16]); 1.51 µM in test [3] (setting [14]); 0.329 µM in test [4] (setting [17]); 6.7 µM in test [5] (setting [12]).

In the case of `C[C@H](N[P@@](=O)(OC[C@@]1(C#N)O[C@@H](c2ccc3c(N)ncnn23)[C@H](O)[C@@H]1O)Oc1ccccc1)C(=O)OCC1CCC1` [Example 119], the half-maximal effective concentration (EC50) in test [1] is 0.12 µM; in test [2] it was 0.539 µM; in test [3] (48 hours) it was 4.28 µM; in test [4] (setting [9]) it was 0.247 µM; in test [5] (Huh-7 replicon cells, 48 hours), 31.1 µM.

Consider `C[C@H](N[P@](=O)(OC[C@@]1(C#N)O[C@@H](c2ccc3c(N)ncnn23)[C@H](O)[C@@H]1O)Oc1ccccc1)C(=O)OCC1CCC1` [Example 120], for which the half-maximal effective concentration (EC50) in test [1] was 0.104 µM; in test [2], 0.101 µM; in test [3] (48 hours), 0.798 µM; in test [4] (setting [9]), 0.295 µM; in test [5] (Huh-7 replicon cells, 48 hours) it was 7.46 µM.

For the compound `CCCCCCCCOC(=O)[C@H](C)NP(=O)(OC[C@@]1(C#N)O[C@@H](c2ccc3c(N)ncnn23)[C@H](O)[C@@H]1O)Oc1ccccc1` (stereo partly drawn) [Example 188, octyl ((((2R,3S,4R,5S)-5-(4-aminopyrrolo[2,1-f][1,2,4]triazin-7-yl)-2-cyano-3,4-dihydroxytetrahydrofuran-2-yl)methoxy)(phenoxy)phosphoryl)-L-alaninate], the EC50 amounted to 0.038 µM in test [1] (setting [15]); 0.186 µM in test [2] (setting [16]); 3.02 µM in test [3] (setting [14]); 0.429 µM in test [4] (setting [17]); 21.4 µM in test [5] (setting [12]).

As a reminder, the EC50 is the concentration at which the effect is half-maximal.
